The values below come from publication PMC11039730, “In situ captured antibacterial action of membrane-incising peptide lamellae” (Nature Communications, 2024).

≈ marks a conversion by molar mass, not a printed value. Read-outs that look alike come from different tables or passages of the source.

By IC20 is commonly meant the concentration at which the effect reaches the 20% level. As a reminder, the IC80 is the concentration at which the effect reaches the 80% level. What is called IC50 is the concentration that inhibits the measured activity by half. For orientation: thermodynamic solubility means the concentration in solution at equilibrium with solid.

Series [1] can be described thus: ANS binding fluorescence (assembly formation). The class given is physicochemical. The following applies: 125 μM peptide, 2.5 μM ANS, mean of 3. As for the experimental part: Fluorescence spectra were recorded using a JASCO FP-8500 spectrofluorometer with an excitation and emission bandwidth of 10 nm and 20 nm, respectively. Three accumulations were measured each time. The 8-anilino-1-naphthalenesulfonic acid (ANS) fluorophore was excited at 388 nm and the emission was recorded from 410 to 600 nm. Binding assays were performed using 125 μM peptide (50 μL) and 2.5 μM ANS. Spectra were corrected for those of the corresponding peptide solutions. page 11: Supplementary Figure 8: ANS binding capacity is higher for 3K and in phosphate media. ANS binding of 2K and 3K (125 μM) were tested in the indicated media using the ANS probe at 2.5 μM. The emission intensities at the maxima were read, and values were normalized for that of unbound ANS. Gray line highlights the reference signal of free ANS. In all tested media, higher ANS binding was detected for 3K over 2K. […] Error bars represent the standard deviation of the mean for three independent experiment sets. 11 (1 picture or pasted object on this page, not shown here)

Series [2] has as its system BL21 DE3 Escherichia coli strain. The class given is cell-based. The method, then:
To investigate the antimicrobial effect of lamellin-2K and lamellin-3K, we used the BL21 DE3 Escherichia coli strain with chromosomal resistance to chloramphenicol. The inoculum was grown overnight in the presence of 30 μM chloramphenicol. 0.5 mL of this inoculum was diluted into 50 mL fresh LB medium and grown till the optical density at 600 nm reached 0.5−0.6 indicating an exponential growth phase. Cells were then centrifuged at 3220 g at 4 °C for 20 min, washed twice in the assay medium (MQ water, 10 mM PBS, or 0.15 mM NaCl), then resuspended in 5 mL of the same medium. 10 μL cell suspension was diluted with the peptide solution to a final concentration of 250 μM, 125 μM, 60 μM, 30 μM, 10 μM, 5 μM, 1 μM and 0 μM (control) in 100 μl volume and incubated for 2 h in sterile, low-bind, U-bottom 96-well microplates (Greiner Bio-One, Hungary) with oxygen penetrating lid at 37 °C, at continuous shaking in a BioTek Synergy Mx plate reader. Aliquots from the wells were taken for the quantification of bacterial viability on LB agar plates after incubation at 37 °C for 16 h to obtain CFU/mL data. Treatments were performed in three biological replicates, each of which in three technical replicates.
Supplementary Figure 26: Antibacterial activity of 2K and 3K in the presence and absence of phosphate ions. a) Growth inhibition curves. Exponentially growing E. coli BL21 shaker cultures were exposed to the peptides at 37 °C in various media for 120 min. Treatments were performed in three biological replicates, each of which in three technical replicates. Data represent mean and error bars represent SEM. Data points are connected to guide the eye. b) Viability curves calculated from growth inhibition data in (a). Smooth lines are sigmoid fits to […]
Supplementary Table 6: Antimicrobial activity of 2K and 3K in various media. […]
* IC values are calculated from sigmoid fits to the viability vs. log(c) data points.
All errors are standard errors. […]

Series [3] has as its system MonoMac 6 human monocytic cells. The class given is cell-based. The following applies: 2 h, AlamarBlue, mean ± SEM, n = 4. As for the experimental part: To evaluate the cytotoxicity of the compounds, AlamarBlue viability assay was performed on MonoMac 6 human monocytic cells (DSMZ no.: ACC 124, Braunschweig, Germany). […] Cells were maintained as an adherent culture in RPMI-1640 media (Lonza, Basel), supplemented with 10% FCS, L-glutamine (2 mM) and penicillin/streptomycin (50 IU/mL and 50 μg/mL) at 37 °C in a humidified atmosphere containing 5% CO2. On the day of the experiment, cells were washed twice with serum-free RPMI or with TRIS-HCl buffer (0.1 M, pH = 7.4) and plated in 96-well flat-bottom tissue culture plates (Sarstedt) (20,000 cells). 250 μM of the lamellin-3K was dissolved and serially diluted (125 μM, 62.5 μM, 31.25 μM, 15.63 μM, 7.81 μM, 3.91 μM, 1.95 μM) in the corresponding assay medium and added to the cells. The final concentration range was between 1.95 and 250 μM and the final volume was 100 μL. […] Following a 2 h of incubation, the fluorescence was measured at λEx = 530/30 and λEm = 610/10 nm using a Synergy H4 multi-mode microplate reader (BioTek). The percent of viability was calculated compared to untreated control wells. […] IC50 values were calculated from the dose-response curves, after fitting with sigmoidal funcion using the GraphPad Prism software package. […]
parallel experiments and error bars represent SEM. The viability percentage was calculated relative to the untreated […]

A short description of the next series: physchem. Type of series: physicochemical. The following applies: aqueous buffer. The method, then:
For assignment purposes, appropriate amounts of lyophilized solid lamellin-2K (or lamellin-3K, respectively) were dissolved in H2O to prepare ~1 mM solutions, followed by 15 min sonication and addition of 10% D2O. For monitoring the effects of different solvents, the lyophilized lamellin-2K and lamellin-3K were dissolved in PBS, sonicated for 30 min, further on 10% D2O was added. For 2K, the concentration of the lamellin was ~250 μM and the solution contained PBS. […] After each addition, the solution was sonicated for 30 min. All samples were measured at 298 K. […]
Supplementary Figure 7: a) and b) Overlay of 1D 1H spectra in water (c = 1 mM, dark colour) and in PBS (light colour) for 2K (green) and 3K (blue), respectively. Concentration in PBS was ~ 250 µM for 2K and ~ 20 µM for 3K. c) and d) Regions of overlaid 1H-1H TOCSY (green) and 1H-1H ROESY (red) for 2K, indicating sequential connectivities. e) Variation of the 3K concentration during PBS titration determined from the integration of leucine […]

Where [4] appears, read: 10 mM PBS, 2 h at 37 °C, CFU on LB agar, sigmoid fit, ± standard error, 3 biological replicates.
The mark [5] stands for this setting: NaCl (0.15 mM [sic] NaCl), 2 h at 37 °C, CFU on LB agar, sigmoid fit, ± standard error, 3 biological replicates.

On to `CCCC(=O)N[C@H](CC(=O)N[C@@H](CC(=O)N[C@@H](CCCCN)CC(=O)N[C@@H](CC(=O)N[C@@H](CCCCN)CC(=O)N[C@@H](CC(N)=O)CC(C)C)CC(C)C)CC(C)C)CC(C)C` [2K], for which the “ANS fluorescence, Mean” value is 1.52 arb. units in series [1] (H2O), 1.24 arb. units in series [1] (NaCl), 5.15 arb. units in series [1] (PBS) and 11.66 arb. units in series [1] (phosphate). Besides, the IC20 in series [2] (setting [4]) is 46.1 ± 4.07 µM; in series [2] (MQ water, 2 h at 37 °C, CFU on LB agar, sigmoid fit, ± standard error, 3 biological replicates) it was 7.06 ± 0.343 µM; in series [2] (setting [5]), 54 ± 12.2 µM. Further, the 80% effect concentration (IC80) in series [2] (setting [4]) amounted to 77.7 ± 3.93 µM; in series [2] (MQ water, 2 h at 37 °C, CFU on LB agar, sigmoid fit to viability vs log(c), ± standard error, 3 biological replicates), 11.2 ± 0.373 µM; in series [2] (setting [5]), 74.2 ± 10.8 µM.

Regarding `CCCC(=O)N[C@H](CC(=O)N[C@@H](CC(=O)N[C@@H](CCCCN)CC(=O)N[C@@H](CC(=O)N[C@@H](CCCCN)CC(=O)N[C@@H](CC(=O)N[C@@H](CCCCN)CC(=O)N[C@@H](CC(N)=O)CC(C)C)CC(C)C)CC(C)C)CC(C)C)CC(C)C` [3K], the “ANS fluorescence, Mean” value in series [1] (H2O) was determined as 3.21 arb. units; in series [1] (NaCl), 7.78 arb. units; in series [1] (PBS), 14.27 arb. units; in series [1] (phosphate), 19.27 arb. units. For the same compound, the half-inhibitory concentration (IC50) worked out at 126 ± 7.1 µM in series [3] (RPMI (phosphate-containing, 5.6 mM Na2HPO4)); 112 ± 8.4 µM in series [3] (Tris-HCl (phosphate-free, 0.1 M, pH 7.4)); 11.6 ± 1.5 µM in series [2] (10 mM PBS, 2 h at 37 °C, CFU on LB agar, sigmoid fit, ± standard error, 3 biological replicates, read-out: IC50); 5.44 ± 0.91 µM in series [2] (BL21, 2 h); 1.24 µM in series [2] (MQ water (phosphate-free), 2 h at 37 °C, CFU on LB agar, sigmoid fit, ± standard error, 3 biological replicates, read-out: IC50). Besides, the IC20 was 9.27 ± 1.45 µM in series [2] (setting [4]) and 4.22 ± 0.82 µM in series [2] (setting [5]). For the same compound, the IC80 in series [2] (setting [4]) was 14.6 ± 1.46 µM; in series [2] (setting [5]), 7 ± 1.02 µM. The compound also yielded a thermodynamic solubility at 30 min in the series “physchem” of roughly 20 µM (≈ 23 µg/mL).
